Experimental data published in patent US20230167127A1, “COMPOUNDS AND THEIR USE IN THE TREATMENT OF BACTERIAL INFECTION” (Hoffmann-La Roche Inc., priority 2020, published 2023).
Where a name gives a salt, the structure may show the parent alone. Read-outs that look alike come from different tables or passages of the source.

Tested on: Escherichia coli ATCC 25922
Assay: 50% growth inhibitory concentration (IC50) determination, Iso-Sensitest broth dilution
Format: cell-based
Conditions: strain Escherichia coli ATCC 25922, 10-point broth dilution, optical density at 600 nm over 16 h, read-out: Escherichia coli growth inhibition IC50
Procedure, shortened: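 10-point twofold Iso-Sensitest broth dilution (e.g. 50 to 0.097 μM final) with DMSO stocks, incubated at 35±2° C. Growth followed by OD 600 nm every 20 min over 16 h; IC50 derived from growth inhibition during logarithmic phase.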

[1] = Escherichia coli, ATCC25922, 16 h

| IC50 [1] [nM] | IC50 [nM] | SMILES |
| --- | --- | --- |
| 598 |  | N#Cc1cccc2c1CC(CNCCC1OC(=O)N(c3ccc4c(n3)NC(=O)CO4)C1CN)C2 (racemic) [Example 148, 2-[[2-[rac-4,5-cis-4-(aminomethyl)-2-oxo-3-(3-oxo-4H-pyrido[3,2-b][1,4]oxazin-6-yl)-1,3-oxazolidin-5-yl]ethylamino]methyl]-2,3-dihydro-1H-indene-4-carbonitrile; formic acid] |
|  | < 97.7 | O=C1COc2ccc(N3CC(CCNCC4Cc5cccc(Cl)c5C4)OC3=O)nc2N1 (single isomer, unassigned; isomer b) [Example 7, 6-[5-[2-[(4-chloro-2,3-dihydro-1H-inden-2-yl)methylamino]ethyl]-2-oxo-1,3-oxazolidin-3-yl]-4H-pyrido[3,2-b][1,4]oxazin-3-one, Isomer B; formic acid] |
| 351 |  | CC1(CCNCC2Cc3c(Cl)cccc3C2N)CN(c2cnc3c(n2)NC(=O)CO3)C(=O)O1 (racemic) [Example 375, 6-[5-methyl-2-oxo-5-[2-[(rac-1,2-trans-1-amino-4-chloro-2,3-dihydro-1H-inden-2-yl)methylamino]ethyl]-1,3-oxazolidin-3-yl]-4H-pyrazino[2,3-b][1,4]oxazin-3-one] |
| 393 |  | CN(C)C(=O)COc1cc(F)c2c(c1)CC(CNCCC1CN(c3ccc4c(n3)NC(=O)CO4)C(=O)O1)C2 (stereo not shown) [Example 77, 2-[[7-fluoro-2-[[2-[2-oxo-3-(3-oxo-4H-pyrido[3,2-b][1,4]oxazin-6-yl)-1,3-oxazolidin-5-yl]ethylamino]methyl]-2,3-dihydro-1H-inden-5-yl]oxy]-N,N-dimethylacetamide] |
| 320 |  | Cc1nc(OC[C@@H]2CCN2)c(C)c2c1CC(CNCCC1CN(c3ccc4c(n3)NC(=O)CO4)C(=O)O1)C2 (stereo partly drawn) [Example 200, 6-[5-[2-[[3-[[(2S)-azetidin-2-yl]methoxy]-1,4-dimethyl-6,7-dihydro-5H-cyclopenta[c]pyridin-6-yl]methylamino]ethyl]-2-oxo-1,3-oxazolidin-3-yl]-4H-pyrido[3,2-b][1,4]oxazin-3-one] |
| < 97.7 |  | NC1c2cccc(Cl)c2CC1CNCCC1CN(c2ccc3c(n2)NC(=O)CO3)C(=O)O1 (single isomer, unassigned; isomer a) [Example 207, 6-[2-Oxo-5-[2-[[1,2-trans-1-amino-4-chloro-2,3-dihydro-1H-inden-2-yl]methylamino]ethyl]-1,3-oxazolidin-3-yl]-4H-pyrido[3,2-b][1,4]oxazin-3-one, Isomer A] |
| 425 |  | Cc1nc(OCC2CNC2)c(C)c2c1CC(CNCCC1CN(c3ccc4c(n3)NC(=O)CO4)C(=O)O1)C2 (stereo not shown) [Example 184, 6-[5-[2-[[3-(azetidin-3-ylmethoxy)-1,4-dimethyl-6,7-dihydro-5H-cyclopenta[c]pyridin-6-yl]methylamino]ethyl]-2-oxo-1,3-oxazolidin-3-yl]-4H-pyrido[3,2-b][1,4]oxazin-3-one hydrochloride] |
| < 97.7 |  | Cc1c(F)cnc2c1CC(CNCCC1CN(c3cnc4c(n3)NC(=O)CO4)C(=O)O1)C2 (stereo not shown) [Example 299, 6-[5-[2-[(3-fluoro-4-methyl-6,7-dihydro-5H-cyclopenta[b]pyridin-6-yl)methylamino]ethyl]-2-oxo-1,3-oxazolidin-3-yl]-4H-pyrazino[2,3-b][1,4]oxazin-3-one] |
| 1080 |  | NC1c2cccc(Cl)c2CC1CNCCc1nn(-c2cnc3c(n2)NC(=O)CO3)c(=O)o1 (racemic) [Example 337, 6-[2-oxo-5-[2-[[rac-1,2-trans-1-amino-4-chloro-2,3-dihydro-1H-inden-2-yl]methylamino]ethyl]-1,3,4-oxadiazol-3-yl]-4H-pyrazino[2,3-b][1,4]oxazin-3-one; formic acid] |
| 240 |  | N#Cc1cccc2c1CC(CN1CCC3(CC1)CN(c1ccc4c(n1)NC(=O)CO4)C(=O)O3)C2N (racemic) [Example 131, rac-1,2-trans-1-amino-2-[[2-oxo-3-(3-oxo-4H-pyrido[3,2-b][1,4]oxazin-6-yl)-1-oxa-3,8-diazaspiro[4.5]decan-8-yl]methyl]-2,3-dihydro-1H-indene-4-carbonitrile; formic acid] |
| < 97.7 |  | Cc1ncc(C#N)c2c1CC(CNCC[C@@H]1CN(c3cnc4c(n3)NC(=O)CO4)C(=O)O1)C2 (stereo partly drawn) [Example 365, 1-methyl-6-[[2-[(5R)-2-oxo-3-(3-oxo-4H-pyrazino[2,3-b][1,4]oxazin-6-yl)-1,3-oxazolidin-5-yl]ethylamino]methyl]-6,7-dihydro-5H-cyclopenta[c]pyridine-4-carbonitrile] |
| < 97.7 |  | NC1(COc2cc(Cl)c3c(c2)CC(NCCCC2CN(c4ccc5c(n4)NC(=O)CO5)C(=O)O2)C3)CC1 (stereo not shown) [Example 180, 6-[5-[3-[[6-[(1-aminocyclopropyl)methoxy]-4-chloro-2,3-dihydro-1H-inden-2-yl]amino]propyl]-2-oxo-1,3-oxazolidin-3-yl]-4H-pyrido[3,2-b][1,4]oxazin-3-one] |
| 728 |  | O=C1COc2ccc(N3CC(CCNCC4Cc5c(ccnc5Cl)C4O)OC3=O)nc2N1 (racemic) [Example 41, 6-[2-oxo-5-[2-[[rac-(5,6-trans)-1-chloro-5-hydroxy-6,7-dihydro-5H-cyclopenta[c]pyridin-6-yl]methylamino]ethyl]-1,3-oxazolidin-3-yl]-4H-pyrido[3,2-b][1,4]oxazin-3-one; formic acid] |
| 295 |  | NC1c2cccc(Cl)c2CC1CNC1CC2(C1)CN(c1ccc3c(n1)NC(=O)CO3)C(=O)O2 (racemic) [Example 210, 2,4-cis-6-[6-oxo-2-[[rac-1,2-trans-1-amino-4-chloro-2,3-dihydro-1H-inden-2-yl]methylamino]-5-oxa-7-azaspiro[3.4]octan-7-yl]-4H-pyrido[3,2-b][1,4]oxazin-3-one] |
| 127 |  | N#Cc1cc(OCC(N)=O)cc2c1CC(CNCCC1CN(c3cnc4c(n3)NC(=O)CO4)C(=O)O1)C2 (stereo not shown) [Example 414, 2-[[7-cyano-2-[[2-[2-oxo-3-(3-oxo-4H-pyrazino[2,3-b][1,4]oxazin-6-yl)-1,3-oxazolidin-5-yl]ethylamino]methyl]-2,3-dihydro-1H-inden-5-yl]oxy]acetamide] |
| 1380 |  | N#Cc1nccc2c1CC(CNCCC1CN(c3ccc4c(n3)NC(=O)CO4)C(=O)O1)C2N (racemic) [Example 133, rac-5,6-trans-5-amino-6-[[2-[2-oxo-3-(3-oxo-4H-pyrido[3,2-b][1,4]oxazin-6-yl)-1,3-oxazolidin-5-yl]ethylamino]methyl]-6,7-dihydro-5H-cyclopenta[c]pyridine-1-carbonitrile; formic acid] |
| < 97.7 |  | Cc1cnc(C)c2c1CC(CNCCC1CN(c3ccc4c(n3)NC(=O)CO4)C(=O)O1)C2 (stereo not shown) [Example 98, 6-[5-[2-[(1,4-dimethyl-6,7-dihydro-5H-cyclopenta[c]pyridin-6-yl)methylamino]ethyl]-2-oxo-1,3-oxazolidin-3-yl]-4H-pyrido[3,2-b][1,4]oxazin-3-one] |
| < 97.7 |  | N#Cc1cc(OC[C@H](N)CO)cc2c1CC(CNCCC1CN(c3ccc4c(n3)NC(=O)CO4)C(=O)O1)C2 (stereo partly drawn) [Example 236, 6-[(2R)-2-Amino-3-hydroxypropoxy]-2-[[2-[2-oxo-3-(3-oxo-4H-pyrido[3,2-b][1,4]oxazin-6-yl)-1,3-oxazolidin-5-yl]ethylamino]methyl]-2,3-dihydro-1H-indene-4-carbonitrile] |
| 582 |  | Cc1ccnc2c1CC(NCCCC1CN(c3ccc4c(n3)NC(=O)CO4)C(=O)O1)C2 (stereo not shown) [Example 27, 6-[5-[3-[(4-methyl-6,7-dihydro-5H-cyclopenta[b]pyridin-6-yl)amino]propyl]-2-oxo-1,3-oxazolidin-3-yl]-4H-pyrido[3,2-b][1,4]oxazin-3-one] |
| 193 |  | Cc1nc(OCC2(N)CC2)cc2c1CC(CNCCC1CN(c3ccc4c(n3)NC(=O)CO4)C(=O)O1)C2 (stereo not shown) [Example 175, 6-[5-[2-[[3-[(1-aminocyclopropyl)methoxy]-1-methyl-6,7-dihydro-5H-cyclopenta[c]pyridin-6-yl]methylamino]ethyl]-2-oxo-1,3-oxazolidin-3-yl]-4H-pyrido[3,2-b][1,4]oxazin-3-one] |
| 121 |  | N#Cc1cc(OCC2CCN2)cc2c1CC(CNCCC1CN(c3ccc4c(n3)NC(=O)CO4)C(=O)O1)C2 (stereo not shown) [Example 187, 6-(azetidin-2-ylmethoxy)-2-[[2-[2-oxo-3-(3-oxo-4H-pyrido[3,2-b][1,4]oxazin-6-yl)-1,3-oxazolidin-5-yl]ethylamino]methyl]-2,3-dihydro-1H-indene-4-carbonitrile] |
| 5800 |  | NC1c2cccc(Cl)c2CC1CNCCC1CN(c2cnc3c(c2)NC(=O)CO3)C(=O)O1 (racemic) [Example 135, 7-[2-oxo-5-[2-[[rac-1,2-trans-1-amino-4-chloro-2,3-dihydro-1H-inden-2-yl]methylamino]ethyl]-1,3-oxazolidin-3-yl]-1H-pyrido[2,3-b][1,4]oxazin-2-one; formic acid] |
| 194 |  | CNCCOc1nc(C)c2c(c1C)CC(CNCCC1CN(c3ccc4c(n3)NC(=O)CO4)C(=O)O1)C2 (stereo not shown) [Example 173, 6-[5-[2-[[1,4-dimethyl-3-[2-(methylamino)ethoxy]-6,7-dihydro-5H-cyclopenta[c]pyridin-6-yl]methylamino]ethyl]-2-oxo-1,3-oxazolidin-3-yl]-4H-pyrido[3,2-b][1,4]oxazin-3-one] |
| < 97.7 |  | NC(=O)COc1ccc2c(c1F)CC(CNCCC1CN(c3cnc4c(n3)NC(=O)CO4)C(=O)O1)C2 (stereo not shown) [Example 413, 2-[[4-fluoro-2-[[2-[2-oxo-3-(3-oxo-4H-pyrazino[2,3-b][1,4]oxazin-6-yl)-1,3-oxazolidin-5-yl]ethylamino]methyl]-2,3-dihydro-1H-inden-5-yl]oxy]acetamide] |
|  | 1180 | Cc1ncc(F)c2c1CC(NCC(O)CC1CN(c3cnc4c(n3)NC(=O)CO4)C(=O)O1)C2 (single isomer, unassigned; isomer b) [Example 314, 6-[2-Oxo-5-[3-[(4-fluoro-1-methyl-6,7-dihydro-5H-cyclopenta[c]pyridin-6-yl)amino]-2-hydroxypropyl]-1,3-oxazolidin-3-yl]-4H-pyrazino[2,3-b][1,4]oxazin-3-one; formic acid, Isomer B] |
